For two compounds, EC50, Kd and Ki results are on record in paper PMC6389909, “Isothermal Analysis of ThermoFluor Data can readily provide Quantitative Binding Affinities” (Scientific Reports, 2019).

Experiment [1] addresses T1, h-CA I (Homo sapiens, UniProt P00915). Kind of experiment: SYPRO Orange DSF, isothermal analysis, carbonic anhydrase h-CA I.
Method: All proteins (MBP, h-CA I and b-CA II) were used at a final concentration of 2 µM for this assay. SYPRO Orange (Invitrogen S6651) was used at a final concentration of 20X for MBP, and at 10X for the carbonic anhydrases. […] Carbonic anhydrase experiments were carried out in 100 mM NaCl, 20 mM TRIS, 1% DMSO, pH 6.1.
All DSF experiments were carried out with Eppendorf Realplex2 Mastercycler. Each sample was divided to three 50 µL replicates. Sample solutions were dispensed into 96-well optical reaction plate (Thermo Fisher Scientific 4306737) and the plate was sealed with optical PCR plate sheet (Thermo Fisher Scientific AB-1170). Fluorescence intensity was measured via the JOE emission filter (550 nm) and “PTS clear plate” was set as the background for the calibration. […] Melting curves were directly exported from the instrument, and then were analyzed with Prism 6 (GraphPad Software Inc.).
DSF data were analyzed in three steps. First, raw fluorescence data as a function of temperature were fit to a modified form of the thermodynamic equation, as follows:22 ΔG=ΔH(1−T/Tm)−ΔCp(Tm−T+Tln[T/Tm]) 23 KU=e^−ΔG/RT 24 Y(T)=[1/1+KU(mFT+bF)]+[KU/1+KU(mUT+bU)]
Here Equation 24 relates the observed fluorescence signal, Y, as a function of temperature (T). The two terms in this equation correspond to contributions from folded and unfolded protein, respectively. […]
Experiment [2] concerns the target T1, h-CA I. Description: Esterase activity assay (4-nitrophenyl acetate), h-CA I. Type of experiment: biochemical. The arrangement: purchased Sigma C4396. The note with it: h-CA I 2 µM; 57 °C; noncompetitive inhibition fit; read-out: Ki (µM), from enzyme assay.
Method: Carbonic anhydrase activity (h-CA I and b-CA II) was measured using a spectrophotometer (Molecular Devices, SpectraMax® i3x) as described elsewhere[73]. h-CA I was used at a final concentration of 2 µM and b-CA II was used at a final concentration of 0.5 µM in the buffer: 100 mM NaCl, 20 mM TRIS, pH 6.1, 1% DMSO. […] All reactions of h-CA I took place at 57 °C and reactions of b-CA II took place at 60 °C. […] Enzyme initial velocity was plotted with different substrate concentration using Prism6. Data were collected for each of the four inhibitors, and the change in initial velocities were analyzed with the “Enzyme-noncompetitive inhibition” equation in Prism6.
Another experiment deals with MBP. The note with it: read-out: Kd reported in previous studies; cited from earlier work.

T1 sequence (P00915 whole entry): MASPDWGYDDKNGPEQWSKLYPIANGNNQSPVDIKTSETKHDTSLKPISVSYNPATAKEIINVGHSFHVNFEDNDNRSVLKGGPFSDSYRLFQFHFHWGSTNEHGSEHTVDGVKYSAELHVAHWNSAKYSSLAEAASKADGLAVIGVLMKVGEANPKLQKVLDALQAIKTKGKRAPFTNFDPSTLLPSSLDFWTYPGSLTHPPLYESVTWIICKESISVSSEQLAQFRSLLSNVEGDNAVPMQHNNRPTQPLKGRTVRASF

Broadly, the EC50 is the concentration needed to bring the measured effect to its halfway point. High values mean a less potent agent, low ones a more potent agent. In general, Kd refers to a measure of binding affinity in units of concentration. By Ki is commonly meant the dissociation constant of the complex between target and ligand, obtained from inhibition or displacement. Turning to `NS(=O)(=O)C(F)(F)F` [TFMSA, trifluoromethanesulfonamide], on h-CA I [1], a half-maximal effect (EC50) was put at 1400 nM. The Kd at h-CA I [1] (Kd (µM), from DSF, h-CA I, 57 °C, 2 µM protein, no denaturant) is under 0.5 µM. The Ki on h-CA I [2] is under 1 µM.

With `OC[C@H]1O[C@H](O[C@H]2[C@H](O)[C@@H](O)C(O)O[C@@H]2CO)[C@H](O)[C@@H](O)[C@@H]1O` (mixture of isomers) [maltose], the Kd on MBP is 500 to 2000 nM.
